{"source": "paper PMC5742115", "about": "“Pharmacophore Modeling and in Silico/in Vitro Screening for Human Cytochrome P450 11B1 and Cytochrome P450 11B2 Inhibitors” (Frontiers in Chemistry, 2017)", "origin": "cited, not measured here", "key": {"[1]": {"system": "CYP11B2", "settings": "reported activity, supplementary Table 1, read-out: CYP11B2 IC50, cited from earlier work"}, "[2]": {"system": "CYP11B1", "settings": "reported activity, supplementary Table 1, read-out: CYP11B1 IC50, cited from earlier work"}}, "note": "Where two headings read alike, the source gives them in different places.", "data": [{"molecule": "C(=C1c2ccccc2-c2ccccc21)c1cccnc1", "note": "[CHEMBL194928]", "values": [{"measurement": "IC50", "setting": "[1]; ref Ulmschneider et al., 2005a", "value": 6, "unit": "nM"}]}, {"molecule": "Fc1ccc2c(c1)CC/C2=C\\c1cncnc1", "note": "[CHEMBL195248]", "values": [{"measurement": "IC50", "setting": "[2]; ref Ulmschneider et al., 2005b", "value": 27, "unit": "nM"}, {"measurement": "IC50", "setting": "[1]; ref Ulmschneider et al., 2005b", "value": 6, "unit": "nM"}]}, {"molecule": "COc1ccc2c(c1)CC/C2=C/c1cncs1", "note": "[CHEMBL195354]", "values": [{"measurement": "IC50", "setting": "[1]; ref Ulmschneider et al., 2005a", "value": 5, "unit": "nM"}]}, {"molecule": "Oc1ccc2cc(-c3cccnc3)ccc2c1", "note": "[CHEMBL195571]", "values": [{"measurement": "IC50", "setting": "[1]; ref Voets et al., 2005", "value": 23, "unit": "nM"}]}, {"molecule": "Fc1ccc2c(c1)CC/C2=C\\c1cccc2ncccc12", "note": "[CHEMBL195580]", "values": [{"measurement": "IC50", "setting": "[1]; ref Ulmschneider et al., 2005a", "value": 14, "unit": "nM"}]}, {"molecule": "Fc1ccc2c(c1)CC/C2=C/c1cccc2ncccc12", "note": "[CHEMBL195653]", "values": [{"measurement": "IC50", "setting": "[1]; ref Ulmschneider et al., 2005a", "value": 31, "unit": "nM"}]}, {"molecule": "c1ccc2cc(-n3ccnc3)ccc2c1", "note": "[CHEMBL195996]", "values": [{"measurement": "IC50", "setting": "[2]; ref Voets et al., 2005", "value": 1320, "unit": "nM"}, {"measurement": "IC50", "setting": "[1]; ref Voets et al., 2005", "value": 39, "unit": "nM"}]}, {"molecule": "COc1ccc2cc(-c3cccnc3)ccc2c1Br", "note": "[CHEMBL196328]", "values": [{"measurement": "IC50", "setting": "[2]; ref Voets et al., 2005", "value": 4480, "unit": "nM"}, {"measurement": "IC50", "setting": "[1]; ref Voets et al., 2005", "value": 33, "unit": "nM"}]}, {"molecule": "N#Cc1ccc2cc(-c3cccnc3)ccc2c1", "note": "[CHEMBL196796]", "values": [{"measurement": "IC50", "setting": "[2]; ref Voets et al., 2005", "value": 691, "unit": "nM"}, {"measurement": "IC50", "setting": "[1]; ref Voets et al., 2005", "value": 3, "unit": "nM"}]}, {"molecule": "COc1ccc2cc(-c3cccnc3)ccc2c1Cl", "note": "[CHEMBL197576]", "values": [{"measurement": "IC50", "setting": "[2]; ref Voets et al., 2005", "value": 2520, "unit": "nM"}, {"measurement": "IC50", "setting": "[1]; ref Voets et al., 2005", "value": 13, "unit": "nM"}]}, {"molecule": "c1cncc(-c2ccc3c4c(cccc24)CC3)c1", "note": "[CHEMBL199683]", "values": [{"measurement": "IC50", "setting": "[1]; ref Ulmschneider et al., 2006", "value": 14, "unit": "nM"}]}, {"molecule": "c1ccc(-c2nc3ncc[nH]c-3n2)nc1", "note": "[CHEMBL201143]", "values": [{"measurement": "IC50", "setting": "[2]; ref Hille et al., 2011a", "value": 16, "unit": "nM"}, {"measurement": "IC50", "setting": "[1]; ref Hille et al., 2011a", "value": 251, "unit": "nM"}]}, {"molecule": "COc1ccc2c(c1)C=C(c1cccnc1)CC2", "note": "[CHEMBL206273]", "values": [{"measurement": "IC50", "setting": "[1]; ref Voets et al., 2006", "value": 5, "unit": "nM"}]}, {"molecule": "O=c1cc(Cn2ccnc2)c2ccc(OCc3ccccc3)cc2o1", "note": "[CHEMBL225499]", "values": [{"measurement": "IC50", "setting": "[2]; ref Stefanachi et al., 2011", "value": 72, "unit": "nM"}, {"measurement": "IC50", "setting": "[1]; ref Stefanachi et al., 2011", "value": 289, "unit": "nM"}]}, {"molecule": "COc1ccc2c(c1)CC/C2=C\\c1ccncc1", "note": "[CHEMBL359942]", "values": [{"measurement": "IC50", "setting": "[1]; ref Ulmschneider et al., 2005a", "value": 59, "unit": "nM"}]}, {"molecule": "C(=C1/CCCc2ccccc21)/c1ccncc1", "note": "[CHEMBL360026]", "values": [{"measurement": "IC50", "setting": "[2]; ref Ulmschneider et al., 2005a", "value": 143, "unit": "nM"}, {"measurement": "IC50", "setting": "[1]; ref Ulmschneider et al., 2005a", "value": 15, "unit": "nM"}]}, {"molecule": "COc1ccc2c(c1)CCC/C2=C\\c1cccnc1", "note": "[CHEMBL362441]", "values": [{"measurement": "IC50", "setting": "[2]; ref Ulmschneider et al., 2005a", "value": 903, "unit": "nM"}, {"measurement": "IC50", "setting": "[1]; ref Ulmschneider et al., 2005a", "value": 57, "unit": "nM"}]}, {"molecule": "C(=C1\\CCc2ccccc21)/c1cccnc1", "note": "[CHEMBL363621]", "values": [{"measurement": "IC50", "setting": "[2]; ref Ulmschneider et al., 2005b", "value": 87, "unit": "nM"}, {"measurement": "IC50", "setting": "[1]; ref Ulmschneider et al., 2005b", "value": 92, "unit": "nM"}]}, {"molecule": "Fc1ccc2c(c1)CC/C2=C/c1cccc2cnccc12", "note": "[CHEMBL363849]", "values": [{"measurement": "IC50", "setting": "[2]; ref Ulmschneider et al., 2005b", "value": 26, "unit": "nM"}, {"measurement": "IC50", "setting": "[1]; ref Ulmschneider et al., 2005b", "value": 65, "unit": "nM"}]}, {"molecule": "C(=C1/CCc2ccccc21)/c1cccnc1", "note": "[CHEMBL364080]", "values": [{"measurement": "IC50", "setting": "[2]; ref Ulmschneider et al., 2005a", "value": 888, "unit": "nM"}, {"measurement": "IC50", "setting": "[1]; ref Ulmschneider et al., 2005a", "value": 11, "unit": "nM"}]}, {"molecule": "COc1ccc2c(c1)/C(=C/c1ccncc1)CC2", "note": "[CHEMBL365314]", "values": [{"measurement": "IC50", "setting": "[1]; ref Ulmschneider et al., 2005a", "value": 3, "unit": "nM"}]}, {"molecule": "Fc1cccc2c1CC/C2=C\\c1cccnc1", "note": "[CHEMBL366490]", "values": [{"measurement": "IC50", "setting": "[2]; ref Ulmschneider et al., 2005a", "value": 774, "unit": "nM"}, {"measurement": "IC50", "setting": "[1]; ref Ulmschneider et al., 2005a", "value": 21, "unit": "nM"}]}, {"molecule": "Brc1ccc2c(c1)CC/C2=C\\c1ccncc1", "note": "[CHEMBL366773]", "values": [{"measurement": "IC50", "setting": "[2]; ref Ulmschneider et al., 2005a", "value": 2640, "unit": "nM"}, {"measurement": "IC50", "setting": "[1]; ref Ulmschneider et al., 2005a", "value": 24, "unit": "nM"}]}, {"molecule": "C(=C1\\CCCc2ccccc21)/c1c[nH]cn1", "note": "[CHEMBL367719]", "values": [{"measurement": "IC50", "setting": "[2]; ref Ulmschneider et al., 2005b", "value": 3.3, "unit": "nM"}, {"measurement": "IC50", "setting": "[1]; ref Ulmschneider et al., 2005b", "value": 9.6, "unit": "nM"}]}, {"molecule": "Clc1cccc2c1CC/C2=C/c1cccnc1", "note": "[CHEMBL369623]", "values": [{"measurement": "IC50", "setting": "[2]; ref Ulmschneider et al., 2005a", "value": 657, "unit": "nM"}, {"measurement": "IC50", "setting": "[1]; ref Ulmschneider et al., 2005a", "value": 31, "unit": "nM"}]}, {"molecule": "COc1ccc2c(c1)/C(=C\\c1ccncc1)CC2", "note": "[CHEMBL370281]", "values": [{"measurement": "IC50", "setting": "[1]; ref Ulmschneider et al., 2005a", "value": 26, "unit": "nM"}]}, {"molecule": "C(=C(c1ccccc1)c1ccccc1)c1cccnc1", "note": "[CHEMBL370317]", "values": [{"measurement": "IC50", "setting": "[1]; ref Ulmschneider et al., 2005a", "value": 9, "unit": "nM"}]}, {"molecule": "Fc1ccc2c(c1)CC/C2=C\\c1cccc2cnccc12", "note": "[CHEMBL370530]", "values": [{"measurement": "IC50", "setting": "[2]; ref Ulmschneider et al., 2005b", "value": 58, "unit": "nM"}, {"measurement": "IC50", "setting": "[1]; ref Ulmschneider et al., 2005b", "value": 57, "unit": "nM"}]}, {"molecule": "Fc1ccc2c(c1)CC/C2=C/c1ccnc2ccccc12", "note": "[CHEMBL371275]", "values": [{"measurement": "IC50", "setting": "[1]; ref Ulmschneider et al., 2005a", "value": 14, "unit": "nM"}]}, {"molecule": "Fc1ccc2c(c1)CC/C2=C\\c1ccnc2ccccc12", "note": "[CHEMBL371509]", "values": [{"measurement": "IC50", "setting": "[1]; ref Ulmschneider et al., 2005a", "value": 20, "unit": "nM"}]}, {"molecule": "Cc1ccc2c(c1)/C(=C/c1ccncc1)CC2", "note": "[CHEMBL371742]", "values": [{"measurement": "IC50", "setting": "[1]; ref Ulmschneider et al., 2005a", "value": 4, "unit": "nM"}]}, {"molecule": "c1cncc(-c2ccc3cccc4c3c2CC4)c1", "note": "[CHEMBL372747]", "values": [{"measurement": "IC50", "setting": "[1]; ref Ulmschneider et al., 2006", "value": 10, "unit": "nM"}]}, {"molecule": "CC1C/C(=C/c2cccnc2)c2ccccc21", "note": "(stereo not drawn) [CHEMBL373074]", "values": [{"measurement": "IC50", "setting": "[1]; ref Ulmschneider et al., 2005a", "value": 41, "unit": "nM"}]}, {"molecule": "COc1ccc2c(Cl)c(-c3cccnc3)ccc2c1Cl", "note": "[CHEMBL381014]", "values": [{"measurement": "IC50", "setting": "[2]; ref Voets et al., 2005", "value": 4900, "unit": "nM"}, {"measurement": "IC50", "setting": "[1]; ref Voets et al., 2005", "value": 28, "unit": "nM"}]}, {"molecule": "C(=C(c1ccccc1)c1ccccc1)c1ccncc1", "note": "[CHEMBL381194]", "values": [{"measurement": "IC50", "setting": "[1]; ref Ulmschneider et al., 2005a", "value": 22, "unit": "nM"}]}, {"molecule": "C(=C1c2ccccc2-c2ccccc21)c1ccncc1", "note": "[CHEMBL383145]", "values": [{"measurement": "IC50", "setting": "[1]; ref Ulmschneider et al., 2005a", "value": 5, "unit": "nM"}]}, {"molecule": "COc1ccc(Cn2cncc2CCCO)cc1", "note": "[CHEMBL597577]", "values": [{"measurement": "IC50", "setting": "[1]; ref Roumen et al., 2010", "value": 59, "unit": "nM"}]}, {"molecule": "c1ccc2c(c1)ncn2CC12CC3CC(CC(C3)C1)C2", "note": "[CHEMBL1651506]", "values": [{"measurement": "IC50", "setting": "[2]; ref Hille et al., 2011b", "value": 75, "unit": "nM"}]}, {"molecule": "CC(C)C(c1ccc(-c2ccccc2)nc1)n1ccnc1", "note": "(stereo not drawn) [CHEMBL2417622]", "values": [{"measurement": "IC50", "setting": "[1]; ref Emmerich et al., 2013", "value": 28, "unit": "nM"}]}]}
